pEC50, pIC50: −log10 of the molar value. Where two headings read alike, the source gives them in different places.
What was measured:
[1] = tested on: HCV replicon in Huh7 cells; assay: HCV replicon cell-based assay; set-up: species or system HCV strain 1B; conditions: Hepatitis C virus, Huh-7, 96 h, HCV replicon, 4 days, read-out: EC50 range
Excerpt: HCV Replicon Cell-based Assay
An HCV replicon whole cell system was established as described by Lohmann V, Komer F, Koch J, Herian U, Theilmann L, Bartenschlager R., Science 285(5424):110–3 (1999). This system enabled us to evaluate the effects of our HCV Protease compounds on HCV RNA replication. Briefly, using the HCV strain 1B sequence described in the Lohmann paper (Assession number:AJ238799), an HCV cDNA was generated encoding the 5′ internal ribosome entry site (IRES), the neomycin resistance gene, the EMCV (encephalomyocarditis viurs)-IRES and the HCV nonstructural proteins, NS3-NS5B, and 3′ non-translated region (NTR). In vitro transcripts of the cDNA were transfected into the human hepatoma cell line, Huh7. […] Resulting cell lines were characterized for positive and negative strand RNA production and protein production over time.
Huh7 cells, constitutively expressing the HCV replicon, were grown in Dulbecco's Modified Eagle Media (DMEM) containing 10% Fetal calf serum (FCS) and 1 mg/ml G418 (Gibco-BRL). Cells were seeded the night before (1.5×10^4 cells/well) in 96-well tissue-culture sterile plates. Compound and no compound controls were prepared in DMEM containing 4% FCS, 1:100 Penicillin/Streptomysin, 1:100 L-glutamine and 5% DMSO in the dilution plate (0.5% DMSO final concentration in the assay). Compound/DMSO mixes were added to the cells and incubated for 4 days at 37° C. After 4 days, plates were rinsed thoroughly with Phosphate-Buffered Saline (PBS) (3 times 150 μl). The cells were lysed with 25 μl of a lysis assay reagent containing the FRET peptide (RET S1, as described for the in vitro enzyme assay). The lysis assay reagent was made from 5× cell Luciferase cell culture lysis reagent (Promega #E153A) diluted to 1× with distilled water, NaCl added to 150 mM final, the FRET peptide diluted to 10 μM final from a 2 mM stock in 100% DMSO. The plate was then placed into the Cytofluor 4000 instrument which had been set to 340 nm excitation/490 emission, automatic mode for 21 cycles and the plate read in a kinetic mode. EC50 determinations were carried out as described for the IC50 determinations.
As a secondary assay, EC50 determinations from the replicon FRET assay were confirmed in a quantitative RNA assay. Cells were lyzed using the Rneasy kit (Qiagen). Purified total RNA was normalized using RiboGreen (Jones L J, Yue S T, Cheung C Y, Singer V L, Anal. Chem., 265(2):368–74 (1998)) and relative quantitation of HCV RNA expression assessed using the Taqman procedure (Kolykhalov A A, Mihalik K, Feinstone S M, Rice C M, Journal of Virology 74, 2046–2051 (2000)) and the Platinum Quantitative RT-PCR Thermoscript One-Step kit (Invitrogen cat # 11731-015). Briefly, RNA made to a volume of 5 μl (<1 ng) was added to a 20 μl Ready-Mix containing the following: 1.25× Thermoscript reaction mix (containing Magnesium Sulfate and 2-deoxynucleoside 5′-triphosphates (dNTPs)), 3 mM dNTPs, 200 nM forward primer (sequence: 5′-[…]-3′), 600 nM reverse primer (5′-[…]-3′), 100 nM probe (5′-6-FAM-[…]-BHQ-1-3′)(FAM: Fluorescein-aminohexyl amidite; BHQ: Black Hole Quencher), 1 μM Rbx reference dye (Invitrogen cat # 12223-012) and Thermoscript Plus Platinum Taq polymerase mixture. All primers were designed with ABI Prism 7700 software and obtained from Biosearch Technologies, Novato, Calif. Samples containing known concentrations of HCV RNA transcript were run as standards. Using the following cycling protocol (50° C., 30 min; 95° C., 5 min; 40 cycles of 95° C., 15 sec, 60° C., 1 min), HCV RNA expression was quantitated as described in the Perkin Elmer manual using the ABI Prism 7700 Sequence Detector.
The luciferase reporter assay was also used to confirm compound potency in the replicon. Utilization of a replicon luciferase reporter assay was first described by Krieger et al (Krieger N, Lohmann V, and Bartenschlager R, J. Virol. 75(10):4614–4624 (2001)). […]

[2] = molecular target: T1, HCV NS3/4A protease complex (UniProt P27958, C1454S/C1711G, species not given); assay: Recombinant HCV NS3/4A protease complex FRET peptide assay (strain not stated); type: biochemical
T1 construct: fused on or other part: Three-lysine solubilising tail at the C-terminus of NS4A

[3] = HCV NS3/4A protease enzyme assay, read-out: IC50 range
[4] = read-out: IC50 range, HCV NS3/4A protease enzyme assay

SMILES | pEC50 [1] | pIC50 [2, 3] | pIC50 [2, 4]
C=CC1C[C@]1(NC(=O)[C@@H]1C[C@@H](OC(=O)Nc2cc(C)ccc2F)CN1C(=O)[C@@H](NC(=O)OC(C)(C)C)C(C)(C)C)C(=O)NS(=O)(=O)C1CC1 (stereo partly drawn) [Compound 21, BocNH-P3(t-BuGly)-P2(Hyp(O—CO(NH—(2-fluoro-5-methyl-phenyl))))-P1(1R,2S VinylAcca)—CONHSO2Cyclopropane] | 6.00 to 7.00 | > 7.00 | 
C=CC1C[C@]1(NC(=O)[C@@H]1C[C@@H](OC(=O)Nc2cc(Cl)cc(Cl)c2)CN1C(=O)[C@@H](NC(=O)OC(C)(C)C)C(C)(C)C)C(=O)NS(=O)(=O)C1CC1 (stereo partly drawn) [Compound 23, BocNH-P3(t-BuGly)-P2(Hyp(O—CO(NH—(3,5-dichloro-phenyl))))-P1(1R,2S VinylAcca)—CONHSO2Cyclopropane] | 6.00 to 7.00 |  | > 7.00
C=CC1C[C@]1(NC(=O)[C@@H]1C[C@@H](OC(=O)NCc2cccc(F)c2)CN1C(=O)[C@@H](NC(=O)OC(C)(C)C)C(C)(C)C)C(=O)NS(=O)(=O)C1CC1 (stereo partly drawn) [Compound 24, BocNH-P3(t-BuGly)-P2(Hyp(O—CO(NH—(3-fluoro-benzyl))))-P1(1R,2S VinylAcca)—CONHSO2Cyclopropane] | < 5.00 | 6.00 to 7.00 | 
C=CC1C[C@]1(NC(=O)[C@@H]1C[C@@H](OC(=O)Nc2cccc(CC)c2)CN1C(=O)[C@@H](NC(=O)OC(C)(C)C)C(C)(C)C)C(=O)NS(=O)(=O)C1CC1 (stereo partly drawn) [Compound 25, BocNH-P3(t-BuGly)-P2(Hyp(O—CO(NH—(3-ethyl-phenyl))))-P1(1R,2S VinylAcca)—CONHSO2Cyclopropane] | 5.00 to 6.00 | > 7.00 | 
C=CC1C[C@]1(NC(=O)[C@@H]1C[C@@H](OC(=O)NCc2ccccc2Cl)CN1C(=O)[C@@H](NC(=O)OC(C)(C)C)C(C)(C)C)C(=O)NS(=O)(=O)C1CC1 (stereo partly drawn) [Compound 26, BocNH-P3(t-BuGly)-P2(Hyp(O—CO(NH—(2-chloro-benzyl))))-P1(1R,2S VinylAcca)—CONHSO2Cyclopropane] | 5.00 to 6.00 | > 7.00 | 
C=CC1C[C@]1(NC(=O)[C@@H]1C[C@@H](OC(=O)Nc2cccc(OC)c2)CN1C(=O)[C@@H](NC(=O)OC(C)(C)C)C(C)(C)C)C(=O)NS(=O)(=O)C1CC1 (stereo partly drawn) [Compound 27, BocNH-P3(t-BuGly)-P2(Hyp(O—CO(NH—(3-methoxy-phenyl))))-P1(1R,2S VinylAcca)—CONHSO2Cyclopropane] | 5.00 to 6.00 | > 7.00 | 
C=CC1C[C@]1(NC(=O)[C@@H]1C[C@@H](OC(=O)Nc2cccc(C(=O)OCC)c2)CN1C(=O)[C@@H](NC(=O)OC(C)(C)C)C(C)(C)C)C(=O)NS(=O)(=O)C1CC1 (stereo partly drawn) [Compound 28, BocNH-P3(t-BuGly)-P2(Hyp(O—CO(NH—(3-benzoic acid ethyl ester))))-P1(1R,2S VinylAcca)—CONHSO2Cyclopropane] | 5.00 to 6.00 | 6.00 to 7.00 | 
C=CC1C[C@]1(NC(=O)[C@@H]1C[C@@H](OC(=O)Nc2ccccc2SC)CN1C(=O)[C@@H](NC(=O)OC(C)(C)C)C(C)(C)C)C(=O)NS(=O)(=O)C1CC1 (stereo partly drawn) [Compound 29, BocNH-P3(t-BuGly)-P2(Hyp(O—CO(NH—(2-methylsulfanyl-phenyl))))-P1(1R,2S VinylAcca)—CONHSO2Cyclopropane] | 6.00 to 7.00 | > 7.00 | 
C=CC1C[C@]1(NC(=O)[C@@H]1C[C@@H](OC(=O)Nc2ccccc2C(=O)OC)CN1C(=O)[C@@H](NC(=O)OC(C)(C)C)C(C)(C)C)C(=O)NS(=O)(=O)C1CC1 (stereo partly drawn) [Compound 30, BocNH-P3(t-BuGly)-P2(Hyp(O—CO(NH—(2-benzoic acid methyl ester))))-P1(1R,2S VinylAcca)—CONHSO2Cyclopropane] | > 7.00 | > 7.00 | 
C=CC1C[C@]1(NC(=O)[C@@H]1C[C@@H](OC(=O)Nc2cccc(Cl)c2Cl)CN1C(=O)[C@@H](NC(=O)OC(C)(C)C)C(C)(C)C)C(=O)NS(=O)(=O)C1CC1 (stereo partly drawn) [Compound 31, BocNH-P3(t-BuGly)-P2(Hyp(O—CO(NH—(2,3-dichloro-phenyl))))-P1(1R,2S VinylAcca)—CONHSO2Cyclopropane] | 6.00 to 7.00 | > 7.00 | 
C=CC1C[C@]1(NC(=O)[C@@H]1C[C@@H](OC(=O)n2c3ccccc3c3ccccc32)CN1C(=O)[C@@H](NC(=O)OC(C)(C)C)C(C)(C)C)C(=O)NS(=O)(=O)C1CC1 (stereo partly drawn) [Compound 32, BocNH-P3(t-BuGly)-P2(Hyp(O—CO(N-(9-carbazolyl))))-P1(1R,2S VinylAcca)—CONHSO2Cyclopropane] | > 7.00 | > 7.00 | 
C=CC1C[C@]1(NC(=O)[C@@H]1C[C@@H](OC(=O)Nc2ccccc2Br)CN1C(=O)[C@@H](NC(=O)OC(C)(C)C)C(C)(C)C)C(=O)NS(=O)(=O)C1CC1 (stereo partly drawn) [Compound 33, BocNH-P3(t-BuGly)-P2(Hyp(O—CO(NH—(2-bromo-phenyl))))-P1(1R,2S VinylAcca)—CONHSO2Cyclopropane] | 6.00 to 7.00 | 6.00 to 7.00 | 
C=CC1C[C@]1(NC(=O)[C@@H]1C[C@@H](OC(=O)Nc2cccc(C(F)(F)F)c2)CN1C(=O)[C@@H](NC(=O)OC(C)(C)C)C(C)(C)C)C(=O)NS(=O)(=O)C1CC1 (stereo partly drawn) [Compound 34, BocNH-P3(t-BuGly)-P2(Hyp(O—CO(NH—(3-trifluoromethyl-phenyl))))-P1(1R,2S VinylAcca)—CONHSO2Cyclopropane] | 5.00 to 6.00 | 6.00 to 7.00 | 
C=CC1C[C@]1(NC(=O)[C@@H]1C[C@@H](OC(=O)Nc2nc(Cl)c(Cl)nc2C(=O)OC)CN1C(=O)[C@@H](NC(=O)OC(C)(C)C)C(C)(C)C)C(=O)NS(=O)(=O)C1CC1 (stereo partly drawn) [Compound 35, BocNH-P3(t-BuGly)-P2(Hyp(O—CO(NH-3-(5,6-Dichloro-pyrazine-2-carboxylic acid methyl ester))))-P1(1R,2S VinylAcca)—CONHSO2Cyclopropane] | < 5.00 | > 7.00 | 
C=CC1C[C@]1(NC(=O)[C@@H]1C[C@@H](OC(=O)N2CCc3ccccc32)CN1C(=O)[C@@H](NC(=O)OC(C)(C)C)C(C)(C)C)C(=O)NS(=O)(=O)C1CC1 (stereo partly drawn) [Compound 36, BocNH-P3(t-BuGly)-P2(Hyp(O—CO(N-(1-indolinyl))))-P1(1R,2S VinylAcca)—CONHSO2Cyclopropane] | 6.00 to 7.00 | > 7.00 | 
C=CC1C[C@]1(NC(=O)[C@@H]1C[C@@H](OC(=O)Nc2cccc(SC)c2)CN1C(=O)[C@@H](NC(=O)OC(C)(C)C)C(C)(C)C)C(=O)NS(=O)(=O)C1CC1 (stereo partly drawn) [Compound 37, BocNH-P3(t-BuGly)-P2(Hyp(O—CO(NH—(3-methylsulfanyl-phenyl))))-P1(1R,2S VinylAcca)—CONHSO2Cyclopropane] | 5.00 to 6.00 | > 7.00 | 
C=CC1C[C@]1(NC(=O)[C@@H]1C[C@@H](OC(=O)Nc2cc(C)ccc2Cl)CN1C(=O)[C@@H](NC(=O)OC(C)(C)C)C(C)(C)C)C(=O)NS(=O)(=O)C1CC1 (stereo partly drawn) [Compound 38, BocNH-P3(t-BuGly)-P2(Hyp(O—CO(NH—(2-chloro-5-methyl-phenyl))))-P1(1R,2S VinylAcca)—CONHSO2Cyclopropane] | 6.00 to 7.00 | > 7.00 | 
C=CC1C[C@]1(NC(=O)[C@@H]1C[C@@H](OC(=O)N(c2ccccc2)c2ccccc2)CN1C(=O)[C@@H](NC(=O)OC(C)(C)C)C(C)(C)C)C(=O)NS(=O)(=O)C1CC1 (stereo partly drawn) [Compound 39, BocNH-P3(t-BuGly)-P2(Hyp(O—CO(N,N-diphenyl)))-P1(1R,2S VinylAcca)—CONHSO2Cyclopropane] | 6.00 to 7.00 |  | > 7.00

Reference: patent US7041698B2, “Hepatitis C virus inhibitors” (Bristol-Myers Squibb Company, priority 2002, dated 2006)
